Test results: paper PMC8496750, “Identification of the organic anion transporting polypeptides responsible for the hepatic uptake of the major metabolite of epyrifenacil, S‐3100‐CA, in mice” (Pharmacology Research & Perspectives, 2021)

Experiments:
human OATP1B3 = target: T1, human OATP1B3 (Homo sapiens, UniProt Q9NPD5); test: Uptake assay for radiolabeled substrates, human OATP1B3 expressing 293FT cells; format: in vitro ADME; details: 10‐min incubation
T1 construct: expressed in transfected cells; host or cells: 293FT cells
T1 sequence (Q9NPD5 1-702): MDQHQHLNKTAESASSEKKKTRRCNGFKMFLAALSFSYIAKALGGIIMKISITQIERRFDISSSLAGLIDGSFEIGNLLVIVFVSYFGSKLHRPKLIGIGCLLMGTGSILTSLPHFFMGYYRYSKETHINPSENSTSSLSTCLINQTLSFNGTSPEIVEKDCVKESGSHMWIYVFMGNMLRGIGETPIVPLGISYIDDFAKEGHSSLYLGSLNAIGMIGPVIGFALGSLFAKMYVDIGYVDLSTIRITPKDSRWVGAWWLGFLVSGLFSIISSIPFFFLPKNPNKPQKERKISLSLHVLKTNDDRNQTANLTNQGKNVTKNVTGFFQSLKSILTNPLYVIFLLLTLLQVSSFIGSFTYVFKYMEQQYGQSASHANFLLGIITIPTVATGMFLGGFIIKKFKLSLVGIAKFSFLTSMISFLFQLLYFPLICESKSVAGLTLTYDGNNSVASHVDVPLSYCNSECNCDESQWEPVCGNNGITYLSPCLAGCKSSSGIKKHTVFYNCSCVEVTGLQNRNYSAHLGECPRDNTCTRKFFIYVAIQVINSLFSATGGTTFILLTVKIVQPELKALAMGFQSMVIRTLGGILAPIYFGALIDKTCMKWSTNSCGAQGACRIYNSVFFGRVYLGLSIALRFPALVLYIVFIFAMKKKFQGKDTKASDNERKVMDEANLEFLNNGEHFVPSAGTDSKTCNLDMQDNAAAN
Description: (§1) 293FT cells were purchased from Thermo Fisher Scientific, Inc.. The cells were grown in Dulbecco's modified Eagle medium (supplemented with 4.5 g/L glucose and 2 mM L‐glutamine) at 37°C, 5% CO2, and 95% humidity. The cells were passaged 3 times per week by harvesting cells using trypsin and plating at a density of 1.0 × 10^4 cells/cm^2 in a 10 cm cell culture plate for maintenance culture. The 293FT cells were detached using trypsin and re‐seeded at a density of 2.5 × 10^4 cells/cm^2 in BioCoat™ Collagen I 6‐well plates (Corning Inc.) for transfection and then treated with 1.2 μg of plasmid vector and 3.2 μl of Lipofectamine™ 2000 Transfection Reagent (Thermo Fisher Scientific, Inc.) according to the manufacturer's instructions. After a 3‐h treatment, the transfection medium was replaced with a fresh cell culture medium and incubated at 37°C with 95% humidity and 5% CO2 until ready for the assay.
(§2) Transport experiments were conducted approximately 24 h post‐transfection. The experiments were initiated by aspirating culture medium and addition of pre‐warmed radiolabeled substrate solution (final 1.0% of acetonitrile or 0.9% of ethanol in phosphate‐buffered saline (PBS[−])) to each well. After a 10‐min incubation, cells were washed twice with 1 ml of ice‐cold PBS(−) and lysed with 700 μl of 1.0 M NaOH for 3 h or more at room temperature. The lysate was transferred to a 1.5‐ml tube, and neutralized with 350 μl of 2.0 M HCl and 350 μl of 2.0% sodium dodecyl sulfate (SDS) solution. From the lysate, 1.0 ml was transferred to a vial containing 10 ml of Emulsifier Scintillator Plus to measure the radioactivity in the LSC. The protein concentration of the cell lysate was also measured using a Pierce™ BCA Protein Assay Kit (Thermo Fisher Scientific, Inc.), which was used to normalize, according to the cell number, the radioactivity in the cell lysate extract. The protein assay was performed in duplicate. Each sample type was assayed in triplicate wells, and each run was performed twice. When the difference in mean uptake between OATP expressing cells and mock cells was more than 2 times, the OATP was judged to be involved in transportation of the substrate. […] Each sample type was assayed in triplicate wells.

mouse Oatp2b1 = target: T2, mouse Oatp2b1 (Mus musculus, UniProt Q8BXB6); test: Uptake assay for radiolabeled substrates, mouse Oatp2b1 expressing 293FT cells; details: 10‐min incubation
T2 sequence (Q8BXB6 1-683): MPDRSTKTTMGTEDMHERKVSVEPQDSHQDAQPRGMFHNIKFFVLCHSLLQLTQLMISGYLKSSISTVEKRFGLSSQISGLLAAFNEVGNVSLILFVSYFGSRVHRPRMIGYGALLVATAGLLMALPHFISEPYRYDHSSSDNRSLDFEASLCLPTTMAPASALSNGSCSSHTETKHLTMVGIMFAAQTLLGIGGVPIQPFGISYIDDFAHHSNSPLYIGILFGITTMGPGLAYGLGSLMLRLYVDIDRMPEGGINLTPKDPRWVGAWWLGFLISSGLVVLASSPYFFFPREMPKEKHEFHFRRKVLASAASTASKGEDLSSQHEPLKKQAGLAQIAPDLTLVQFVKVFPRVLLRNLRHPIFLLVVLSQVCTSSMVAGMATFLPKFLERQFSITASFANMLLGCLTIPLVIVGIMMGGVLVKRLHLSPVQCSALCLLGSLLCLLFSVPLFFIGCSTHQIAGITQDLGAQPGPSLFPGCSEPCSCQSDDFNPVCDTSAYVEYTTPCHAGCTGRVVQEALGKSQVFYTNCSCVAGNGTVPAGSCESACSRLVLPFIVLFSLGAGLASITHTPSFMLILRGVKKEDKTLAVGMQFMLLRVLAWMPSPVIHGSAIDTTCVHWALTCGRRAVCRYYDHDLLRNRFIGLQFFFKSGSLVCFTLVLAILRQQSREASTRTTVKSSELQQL
Description: as §1, §2

Cn1c(C(F)(F)F)cc(=O)n(-c2cc(Oc3cccnc3OCC(=O)O)c(Cl)cc2F)c1=O [S‐3100‐CA]
Ratio of uptake amount relative to the uptake into mock cells (human OATP1B3; Run_1): 3.1
Ratio of uptake amount relative to the uptake into mock cells (human OATP1B3; Run_2): 5.1
Ratio of uptake amount relative to the uptake into mock cells (mouse Oatp2b1; Run_1): 2.4
Ratio of uptake amount relative to the uptake into mock cells (mouse Oatp2b1; Run_2): 4.0

C[C@]12CC[C@@H]3c4ccc(O)cc4CC[C@H]3[C@@H]1CC[C@@H]2O[C@@H]1O[C@H](C(=O)O)[C@@H](O)[C@H](O)[C@H]1O [E217βG, Estradiol 17β‐D‐glucuronide]
Ratio of uptake amount relative to the uptake into mock cells (human OATP1B3; Run_1): 19.3
Ratio of uptake amount relative to the uptake into mock cells (human OATP1B3; Run_2): 12.9
Ratio of uptake amount relative to the uptake into mock cells (mouse Oatp2b1; Run_1): 4.1
Ratio of uptake amount relative to the uptake into mock cells (mouse Oatp2b1; Run_2): 2.0

C[C@]12CC[C@@H]3c4ccc(OS(=O)(=O)O)cc4CC[C@H]3[C@@H]1CCC2=O [E3S, Estrone 3‐sulfate]
Ratio of uptake amount relative to the uptake into mock cells (human OATP1B3; Run_1): 2.7
Ratio of uptake amount relative to the uptake into mock cells (human OATP1B3; Run_2): 3.3
Ratio of uptake amount relative to the uptake into mock cells (mouse Oatp2b1; Run_1): 2.9
Ratio of uptake amount relative to the uptake into mock cells (mouse Oatp2b1; Run_2): 3.9
